Data taken from US20250197799A1, “CELLS DERIVED FROM POLYPEDILUM VANDERPLANKI AND ODOR SENSOR EQUIPPED THEREWITH” (University of Maryland, College Park, priority 2022, published 2025).

What was measured:
Orco = molecular target: T1, Orco (Drosophila melanogaster, UniProt Q9VNB5); test: Exogenous membrane protein function after drying-rehydration, Orco stable expression cell line; format: cell-based; details: 1 hour after drying and rehydration
T1 construct: remnant residues; expressed in transfected cells; host or cells: Pv11 cells (Polypedilum vanderplanki), knock-in at the Pv.00443 locus downstream of the 121 promoter, single-cell sorting
T1 sequence (Q9VNB5 1-486): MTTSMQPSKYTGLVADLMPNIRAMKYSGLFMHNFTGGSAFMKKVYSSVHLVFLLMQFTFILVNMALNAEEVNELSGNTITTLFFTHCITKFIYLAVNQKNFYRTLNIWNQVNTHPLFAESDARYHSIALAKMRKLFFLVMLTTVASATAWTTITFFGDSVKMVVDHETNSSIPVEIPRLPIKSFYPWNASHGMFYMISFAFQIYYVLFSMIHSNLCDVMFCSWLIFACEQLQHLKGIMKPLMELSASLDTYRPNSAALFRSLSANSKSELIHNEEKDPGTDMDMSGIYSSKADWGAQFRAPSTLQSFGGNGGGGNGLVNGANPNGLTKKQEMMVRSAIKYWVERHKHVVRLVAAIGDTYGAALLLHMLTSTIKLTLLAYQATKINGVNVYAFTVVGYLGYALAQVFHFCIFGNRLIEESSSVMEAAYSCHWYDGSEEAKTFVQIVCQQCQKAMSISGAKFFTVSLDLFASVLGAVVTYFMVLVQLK
Method: To assess the drought tolerance of the cell lines, the cells were dried according to the following protocol. 4×10^7 Pv11-GCaMP6f stable expression cell lines were centrifuged at 700 g for 3 minutes and the supernatant removed. The precipitated cells were suspended in a 600 mM trehalose mix of 600 mM trehalose and IPL-41 medium at a ratio of 9:1, transferred to a 2 ml flask, and incubated at 25° C. for 48 hours. After 48 hours, the obtained cells were centrifuged at 700 g for 3 minutes and the supernatant was removed. The sedimented cells were suspended in 400 μl of 600 mM trebalose mix, and 40 μl were dropped onto a 35 mm dish. […]
6. […] Using the Orco stable expression cell line and Orco-Or47a stable expression cell line, in order to assess the function of exogenous membrane proteins before drying and after 1 hour of rehydration after drying, fluorescence intensity generated in response to stimulation with VUAA1 (Orco agonist) or pentyl acetate (ligand of Or47a) was measured in the same manner as in 3.2 above.
The fluorescence intensity was digitized from the photograph, and ΔF/F was calculated according to the following formula:
Where the summation Σi=1^n is over the n cells in the image, Fi,after means the fluorescence intensity of the cell i after adding the ligand solution, and Fi,0 means the fluorescence intensity of the cell i before adding the ligand solution. […]

Orco-Or47a = molecular target: T2, Orco-Or47a (Drosophila melanogaster, UniProt P81921+Q9VNB5); test: Ligand assay using a perfusion system; format: cell-based; design: remnant residues; expressed in transfected cells; host or cells: Pv11 cells (Polypedilum vanderplanki), CRIS-PITCh knock-in at the Pv.00443 locus downstream of the 121 promoter, Zeocin selection and single-cell sorting; details: 1 mM pentyl acetate perfused 5 minutes at 1 mL/min; BAM-fixed cells
T2 sequence (Q9VNB5 1-486): T1 sequence (Q9VNB5 1-486)
T2 sequence (P81921 1-385): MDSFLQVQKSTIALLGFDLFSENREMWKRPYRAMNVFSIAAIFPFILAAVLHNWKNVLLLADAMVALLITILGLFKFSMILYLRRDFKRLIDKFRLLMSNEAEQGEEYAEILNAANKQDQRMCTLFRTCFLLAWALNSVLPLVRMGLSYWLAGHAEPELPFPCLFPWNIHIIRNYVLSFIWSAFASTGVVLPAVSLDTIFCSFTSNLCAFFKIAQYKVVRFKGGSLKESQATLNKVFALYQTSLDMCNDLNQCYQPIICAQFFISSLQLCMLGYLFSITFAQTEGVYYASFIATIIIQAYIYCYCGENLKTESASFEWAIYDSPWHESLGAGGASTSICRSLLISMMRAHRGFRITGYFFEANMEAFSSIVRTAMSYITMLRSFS
Method: 9.1 Ligand assay. A ligand assay was performed using a perfusion system using Orco-Or47a stable expression cell line and GCaMP6f stable expression cell line. […] The Orco-Or47a stable expression cell line and the GCaMP6f stable expression cell line were fixed with BAM as described in 8.1 above and perfused at a flow rate of 1 mL/min using a peristaltic pump (SJ-1211 II-L2, ATTO). The perfusion solution was ACSF buffer (125 mM NaCl, 5.6 mM KCl, 1.25 mM Na2HPO4, 10 mM HEPES, 1.5 mM CaCl2), pH7.4) as a standard solution. As a ligand for Or47a, pentyl acetate was diluted to a final concentration of 1 mM, and as a negative control, DMSO was diluted to 1% by mass. The standard solution was perfused, switched to 1 mM pentyl acetate solution or 1% by mass DMSO solution, and perfusion was performed for 5 minutes. Photographing of the cells was started after waiting for the 1 mM pentyl acetate solution or 1% by mass DMSO solution to reach the cells in about 60 seconds. Bright-field and fluorescence images of the perfused Pv11 cells were taken 30 times at 10-second intervals (LSM700, ZEISS). The method for obtaining ΔF/F0 was as described above. 25 cells were selected from the captured image, each produced ΔF/F0, and the response was maintained for about 4 minutes; from this it was confirmed that the present disclosure can be applied as an odor sensor capable of rapid odor determination.

## CCc1ccc(NC(=O)CSc2nnc(-c3cccnc3)n2CC)cc1 [VUAA1, N-(4-ethylphenyl)-2-{[4-ethyl-5-(pyridin-3-yl)-4H-1,2,4-triazol-3-yl]sulfanyl}acetamide]
Orco
  fluorescence on stimulation: fluorescence was observed

## CCCCCOC(C)=O [pentyl acetate]
Orco-Or47a
  time the response was maintained: about 4 minutes
